According to US20230263757A1, “DISINFECTING WIPE KIT FOR CENTRAL VENOUS ACCESS DEVICES” (SterileCare Inc., priority 2022, published 2023):
Structures can show the parent of a compound that is named as a salt. Where two headings read alike, the source gives them in different places.

Assays:
MRSA ON184 [1] = test: MBC/MFC determination; assay type: cell-based, S. aureus; settings: alone
Method: (§1) An assay was made using a minimum inhibitory concentration (MIC) and minimum bactericidal concentration (MBC) and minimum fungicidal concentration (MFC) determination. The MIC was determined by the micro broth dilution method in 96-well plates. Serial two-fold dilutions of tetrasodium EDTA (from 2% to 0.015%), ethanol (from 50% to 0.1%) and chlorhexidine HCl (from 100 μg/mL to 0.025 μg/mL) were prepared in MH broth with a final volume of 90 μL per well. A 10 μL containing 1×10^5 bacterial cells or 2×10^3 fungal cells were added to each well. The inoculated plates were covered with a lid, sealed with Parafilm, and incubated for 24 h at 37° C. with slight rocking on a tilting platform shaker. After incubation, the optical density at 600 nm (OD 600) of the cultures in each well was measured using an xMark™ Microplate Absorbance Spectrophotometer (Bio-Rad). […] MBCs and MFCs were determined by transferring 100 μL from each well with no apparent growth onto appropriate agar plates, followed by incubation for 24 h at 37° C.

C. albicans ON47 [2] = test: MBEC assay, 48-h biofilm, 24 h exposure; assay type: cell-based, Candida albicans
Method: (§2) A biofilm cultivation cell composition was provided. This fifth composition was created using an MBEC Assay® biofilm inoculator, consisting of a polystyrene lid with 96 downward-protruding pegs and a corresponding base used to grow biofilms. A standardized inoculum was diluted in an appropriate biofilm growth medium to achieve a viable cell count of 1.5×10^6 CFU/mL of bacterial cells or 5×10^5 CFU/mL of fungal cells. Then, 150 μL of this inoculum was transferred into each appropriate well, and the peg lids were inserted into the microtiter plates. The plates were sealed with Parafilm and were incubated at optimum temperature for 48 h with slight rocking for bacteria and shaking at 200 rpm for fungal strains. After incubation, the peg lid was removed from the base and rinsed twice with sterile phosphate-buffered saline (PBS) for 2 min to remove loosely attached non-sessile cells. Before the antimicrobial challenge, the pegs in column 1 (n=8) were considered the biofilm growth control; these pegs were removed from the lids, placed into 200 μL of recovery medium, and analyzed for starting biofilm cell numbers as described below. The rinsed pegs were placed into new 96-well plates containing two-fold dilutions of antimicrobials such as tetrasodium EDTA (4%-0.0125%), ethanol (100%-0.2%), and chlorhexidine HCl (100 μg/mL-0.4 μg/mL) in 200 μL of suitable biofilm growth medium per well and incubated at optimum temperature for 24 h. After the antimicrobial challenge, the pegs were rinsed twice with sterile PBS for 2 min and placed into a new 96-well plate containing 200 μL of recovery medium. The recovery plates were sealed with Parafilm, and biofilm cells were dislodged from the pegs by sonication for 30 min with a Branson 3510 bath sonicator. The biofilm cells in the recovery medium were serially diluted, and a drop dilution assay was performed to enumerate the viable cells. MBEC values were determined as the minimum concentration of antimicrobials that yielded a viable cell count at or lower than the 125 CFU/mL detection limit.

E. coli SK2 = test: Checkerboard titration, FICI; assay type: cell-based, Escherichia coli; settings: for concentration in combination: EDTA + ethanol
Method: (§3) A fourth composition and solution included tetrasodium EDTA with ethanol or chlorhexidine HCl. This fourth composition and solution were created using checkerboard titration methods using micro broth dilution in 96-well microtiter plates. The concentrations of antimicrobials used were based on previously determined MIC values. Briefly, 200 μL, of two-fold dilutions of tetrasodium EDTA and ethanol or chlorhexidine HCl were prepared in MH or MH II broth with standardized cell suspension. […] Microtiter plates were incubated at 37° C. for 24 h, and the results were analyzed. Each test was performed in duplicate and included a growth control without adding any antimicrobials.

S. epidermidis SK9 = test: MIC, micro broth dilution; assay type: cell-based, Staphylococcus epidermidis; settings: alone
Method: as §1

[3] = tested on: Staphylococcus aureus ON89; test: Checkerboard titration, FICI; assay type: cell-based; settings: for concentration in combination: EDTA + ethanol
Method: as §3

Escherichia coli ON29 [4] = test: Checkerboard titration, FICI; assay type: cell-based; settings: for concentration in combination: EDTA + ethanol
Method: as §3

Proteus mirabilis ON153 [5] = test: Checkerboard titration, FICI; assay type: cell-based; settings: for concentration in combination: EDTA + ethanol
Method: as §3

[6] = tested on: Pseudomonas aeruginosa SK1; test: Checkerboard titration, FICI; assay type: cell-based; settings: for concentration in combination: EDTA + ethanol
Method: as §3

Serratia marcescens SK2 [7] = test: Checkerboard titration, FICI; assay type: cell-based; settings: for concentration in combination: EDTA + ethanol
Method: as §3

Candida albicans SK4b [8] = test: Checkerboard titration, FICI; assay type: cell-based; settings: for concentration in combination: EDTA + ethanol
Method: as §3

[9] = tested on: Staphylococcus epidermidis ON170; test: Checkerboard titration, FICI; assay type: cell-based; settings: for concentration in combination: EDTA + ethanol
Method: as §3

[10] = tested on: Stenotrophomonas maltophilia ON17; test: Checkerboard titration, FICI; assay type: cell-based; settings: for concentration in combination: EDTA + ethanol
Method: as §3

[11] = tested on: Staphylococcus aureus ON89; test: FBEC index, checkerboard on biofilms; assay type: cell-based; settings: for biofilm eradication concentration in combination (FBEC): EDTA + ethanol
Method: In step (4), microtiter plates are incubated at 37° C. for 24 h. then (6), after incubation, the bacterial and fungal cells were dislodged from the pegs into the recovery medium described above.
Three 10-μL aliquots, for a total of 30 μL from each well of recovery medium, were spotted on MH agar plates and incubated for 24 h at 37° C. […] The FBEC determination is a modification of the FICI.

[12] = tested on: Staphylococcus aureus ON89; test: MIC, micro broth dilution; assay type: cell-based; settings: alone
Method: as §1

Escherichia coli ON29 [13] = test: MIC, micro broth dilution; assay type: cell-based; settings: alone
Method: as §1

Proteus mirabilis ON153 [14] = test: MIC, micro broth dilution; assay type: cell-based; settings: alone
Method: as §1

[15] = tested on: Pseudomonas aeruginosa SK1; test: MIC, micro broth dilution; assay type: cell-based; settings: alone
Method: as §1

Serratia marcescens SK2 [16] = test: MIC, micro broth dilution; assay type: cell-based; settings: alone
Method: as §1

Candida albicans SK4b [17] = test: MIC, micro broth dilution; assay type: cell-based; settings: alone
Method: as §1

[18] = tested on: Staphylococcus epidermidis ON170; test: MIC, micro broth dilution; assay type: cell-based; settings: alone
Method: as §1

[19] = tested on: Stenotrophomonas maltophilia ON17; test: MIC, micro broth dilution; assay type: cell-based; settings: alone
Method: as §1

C. albicans ON47 [20] = test: MBC/MFC determination; assay type: cell-based, Candida albicans; settings: alone
Method: as §1

C. albicans ON47 [21] = test: MIC, micro broth dilution; assay type: cell-based, Candida albicans; settings: alone
Method: as §1

MRSA ON184 [22] = test: MBEC assay, 48-h biofilm, 24 h exposure; assay type: cell-based, S. aureus
Method: as §2

## [H]/N=C(\N/C(=N/[H])NCCCCCCNC(=N)NC(=N)Nc1ccc(Cl)cc1)Nc1ccc(Cl)cc1 [Chlorhexidine HCl, 1,6-bis(4′-chlorophenylbiguanide) hexane]
MRSA ON184 [1]
  MBC/MFC: 1.6 µg/mL
C. albicans ON47 [2]
  MBEC: 25 µg/mL
E. coli SK2; EDTA + chlorhexidine HCl
  Chlorhexidine HCl concentration in combination: 0.1 µg/mL
S. epidermidis SK9; Staphylococcus epidermidis, read-out: MIC
  MIC: 0.1 µg/mL
[3]; EDTA + chlorhexidine HCl
  Chlorhexidine HCl concentration in combination: 0.1 µg/mL
Escherichia coli ON29 [4]; EDTA + chlorhexidine HCl
  Chlorhexidine HCl concentration in combination: 0.2 µg/mL
Proteus mirabilis ON153 [5]; EDTA + chlorhexidine HCl
  Chlorhexidine HCl concentration in combination: 0.8 µg/mL
[6]; EDTA + chlorhexidine HCl
  Chlorhexidine HCl concentration in combination: 0.8 µg/mL
Serratia marcescens SK2 [7]; EDTA + chlorhexidine HCl
  Chlorhexidine HCl concentration in combination: 1.5 µg/mL
Candida albicans SK4b [8]; EDTA + chlorhexidine HCl
  Chlorhexidine HCl concentration in combination: 0.8 µg/mL
[9]; EDTA + chlorhexidine HCl
  Chlorhexidine HCl concentration in combination: 0.05 µg/mL
[10]; EDTA + chlorhexidine HCl
  Chlorhexidine HCl concentration in combination: 0.2 µg/mL
[11]; EDTA + chlorhexidine HCl
  Chlorhexidine HCl biofilm eradication concentration in combination (FBEC): 3.125 µg/mL
[12]; read-out: MIC
  MIC: 0.1 µg/mL
Escherichia coli ON29 [13]; read-out: MIC
  MIC: 0.4 µg/mL
Proteus mirabilis ON153 [14]; read-out: MIC
  MIC: 50 µg/mL
[15]; read-out: MIC
  MIC: 1.6 µg/mL
Serratia marcescens SK2 [16]; read-out: MIC
  MIC: 12.5 µg/mL
Candida albicans SK4b [17]; read-out: MIC
  MIC: 1.6 µg/mL
[18]; read-out: MIC
  MIC: 0.1 µg/mL
[19]; read-out: MIC
  MIC: 0.8 µg/mL
C. albicans ON47 [20]
  MBC/MFC: 3.125 µg/mL
C. albicans ON47 [21]; Candida albicans, read-out: MIC
  MIC: 1.6 µg/mL
MRSA ON184 [22]
  MBEC: 50 µg/mL

## O=C([O-])CN(CCN(CC(=O)[O-])CC(=O)[O-])CC(=O)[O-].[Na+].[Na+].[Na+].[Na+] [EDTA, tetrasodium EDTA]
MRSA ON184 [1]
  MBC/MFC: 2 % w/v
C. albicans ON47 [2]
  MBEC: 1 % w/v
E. coli SK2; EDTA + chlorhexidine HCl
  EDTA concentration in combination: 0.008 % w/v
E. coli SK2
  concentration in combination: 0.015 % w/v
S. epidermidis SK9
  MIC: 0.063 % w/v
[3]; EDTA + chlorhexidine HCl
  EDTA concentration in combination: 0.008 % w/v
[3]
  concentration in combination: 0.015 % w/v
Escherichia coli ON29 [4]; EDTA + chlorhexidine HCl
  EDTA concentration in combination: 0.008 % w/v
Escherichia coli ON29 [4]
  concentration in combination: 0.25 % w/v
Proteus mirabilis ON153 [5]; EDTA + chlorhexidine HCl
  EDTA concentration in combination: 0.063 % w/v
Proteus mirabilis ON153 [5]
  concentration in combination: 0.5 % w/v
[6]; EDTA + chlorhexidine HCl
  EDTA concentration in combination: 0.5 % w/v
[6]
  concentration in combination: 0.031 % w/v
Serratia marcescens SK2 [7]; EDTA + chlorhexidine HCl
  EDTA concentration in combination: 0.063 % w/v
Serratia marcescens SK2 [7]
  concentration in combination: 0.5 % w/v
Candida albicans SK4b [8]; EDTA + chlorhexidine HCl
  EDTA concentration in combination: 0.063 % w/v
Candida albicans SK4b [8]
  concentration in combination: 0.25 % w/v
[9]; EDTA + chlorhexidine HCl
  EDTA concentration in combination: 0.063 % w/v
[9]
  concentration in combination: 0.015 % w/v
[10]; EDTA + chlorhexidine HCl
  EDTA concentration in combination: 0.015 % w/v
[10]
  concentration in combination: 0.031 % w/v
[11]; EDTA + chlorhexidine HCl
  EDTA biofilm eradication concentration in combination (FBEC): 0.125 % w/v
[11]
  biofilm eradication concentration in combination (FBEC): 0.063 % w/v
[12]
  MIC: 0.063 % w/v
Escherichia coli ON29 [13]
  MIC: 0.5 % w/v
Proteus mirabilis ON153 [14]
  MIC: 1 % w/v
[15]
  MIC: 0.25 % w/v
Serratia marcescens SK2 [16]
  MIC: 2 % w/v
Candida albicans SK4b [17]
  MIC: 1 % w/v
[18]
  MIC: 0.063 % w/v
[19]
  MIC: 0.063 % w/v
C. albicans ON47 [20]
  MBC/MFC: 1 % w/v
C. albicans ON47 [21]
  MIC: 1 % w/v
MRSA ON184 [22]
  MBEC: 2 % w/v

## CCO [Ethanol, ethanol]
MRSA ON184 [1]
  MBC/MFC: 25 % w/v
C. albicans ON47 [2]
  MBEC: 12.5 % w/v
E. coli SK2
  concentration in combination: 6.25 % w/v
S. epidermidis SK9
  MIC: 6.25 % w/v
[3]
  concentration in combination: 0.4 % w/v
Escherichia coli ON29 [4]
  concentration in combination: 3.125 % w/v
Proteus mirabilis ON153 [5]
  concentration in combination: 1.6 % w/v
[6]
  concentration in combination: 3.125 % w/v
Serratia marcescens SK2 [7]
  concentration in combination: 3.125 % w/v
Candida albicans SK4b [8]
  concentration in combination: 1.6 % w/v
[9]
  concentration in combination: 0.4 % w/v
[10]
  concentration in combination: 0.4 % w/v
[11]
  biofilm eradication concentration in combination (FBEC): 0.8 % w/v
[12]
  MIC: 6.25 % w/v
Escherichia coli ON29 [13]
  MIC: 12.5 % w/v
Proteus mirabilis ON153 [14]
  MIC: 6.25 % w/v
[15]
  MIC: 3.125 % w/v
Serratia marcescens SK2 [16]
  MIC: 6.25 % w/v
Candida albicans SK4b [17]
  MIC: 6.25 % w/v
[18]
  MIC: 3.125 % w/v
[19]
  MIC: 6.25 % w/v
C. albicans ON47 [20]
  MBC/MFC: 6.25 % w/v
C. albicans ON47 [21]
  MIC: 6.25 % w/v
MRSA ON184 [22]
  MBEC: 12.5 % w/v
